Data reported in PubChem BioAssay (NCI).
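1) Cells in 96-well plates. 2) Compound, 48 h, 5 concentrations. 3) Linear interpolation between surrounding doses. 4) Unreached endpoint = highest concentration. TGI denotes the concentration required for complete inhibition of growth.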

Experiments:
Test in all cases: NCI tumour cell line growth inhibition, 48 h
786-0 renal = system: 786-0 renal
A498 renal = system: A498 renal
A549 NSCLC = system: A549 NSCLC
ACHN renal = system: ACHN renal
BT-549 breast = system: BT-549 breast
COLO 205 colon = system: COLO 205 colon
EKVX NSCLC = system: EKVX NSCLC
HCC-2998 colon = system: HCC-2998 colon
HCT-116 colon = system: HCT-116 colon
HCT-15 colon = system: HCT-15 colon
HL-60(TB) leukemia = system: HL-60(TB) leukemia
HOP-62 NSCLC = system: HOP-62 NSCLC
HS 578T breast = system: HS 578T breast
HT29 colon = system: HT29 colon
IGROV1 ovarian = system: IGROV1 ovarian
K-562 leukemia = system: K-562 leukemia
KM12 colon = system: KM12 colon
LOX IMVI melanoma = system: LOX IMVI melanoma
M14 melanoma = system: M14 melanoma
MALME-3M melanoma = system: MALME-3M melanoma
MCF7 breast = system: MCF7 breast
MDA-MB-231 breast = system: MDA-MB-231 breast
MDA-MB-435 = system: MDA-MB-435
MDA-N = system: MDA-N
MOLT-4 leukemia = system: MOLT-4 leukemia
NCI-H23 lung = system: NCI-H23 lung
NCI-H460 lung = system: NCI-H460 lung
NCI-H522 lung = system: NCI-H522 lung
NCI/ADR-RES ovarian = system: NCI/ADR-RES ovarian
OVCAR-3 ovarian = system: OVCAR-3 ovarian
OVCAR-5 ovarian = system: OVCAR-5 ovarian
OVCAR-8 ovarian = system: OVCAR-8 ovarian
PC-3 prostate = system: PC-3 prostate
RPMI-8226 leukemia = system: RPMI-8226 leukemia
SF-295 CNS = system: SF-295 CNS
SF-539 CNS = system: SF-539 CNS
SK-MEL-2 melanoma = system: SK-MEL-2 melanoma
SK-MEL-28 melanoma = system: SK-MEL-28 melanoma
SK-MEL-5 melanoma = system: SK-MEL-5 melanoma
SN12C renal = system: SN12C renal
SNB-19 CNS = system: SNB-19 CNS
SR leukemia = system: SR leukemia
SW-620 colon = system: SW-620 colon
T-47D breast = system: T-47D breast
TK-10 renal = system: TK-10 renal
U251 CNS = system: U251 CNS
UACC-257 melanoma = system: UACC-257 melanoma
UACC-62 melanoma = system: UACC-62 melanoma
UO-31 renal = system: UO-31 renal
CAKI-1 renal = system: CAKI-1 renal
CCRF-CEM leukemia = system: CCRF-CEM leukemia
HOP-92 NSCLC = system: HOP-92 NSCLC
OVCAR-4 ovarian = system: OVCAR-4 ovarian
SF-268 CNS = system: SF-268 CNS
SK-OV-3 ovarian = system: SK-OV-3 ovarian

SMILES: COc1cc2c3c(c1O)N=NC=3CCN=2
- TGI (786-0 renal): 32.7 µM
- TGI (A498 renal): 75.4 µM
- TGI (A549 NSCLC): 66.4 µM
- TGI (ACHN renal): 33.8 µM
- TGI (BT-549 breast): 31.7 µM
- TGI (COLO 205 colon): 35.2 µM
- TGI (EKVX NSCLC): 30.7 µM
- TGI (HCC-2998 colon): > 100 µM
- TGI (HCT-116 colon): 28.1 µM
- TGI (HCT-15 colon): > 100 µM
- TGI (HL-60(TB) leukemia): 14.8 µM
- TGI (HOP-62 NSCLC): 97.3 µM
- TGI (HS 578T breast): > 100 µM
- TGI (HT29 colon): 28.8 µM
- TGI (IGROV1 ovarian): 34 µM
- TGI (K-562 leukemia): 18.3 µM
- TGI (KM12 colon): 88.4 µM
- TGI (LOX IMVI melanoma): 18 µM
- TGI (M14 melanoma): 28.8 µM
- TGI (MALME-3M melanoma): 30.2 µM
- TGI (MCF7 breast): 20.2 µM
- TGI (MDA-MB-231 breast): 29.8 µM
- TGI (MDA-MB-435): 24.5 µM
- TGI (MDA-N): 25.1 µM
- TGI (MOLT-4 leukemia): 50.4 µM
- TGI (NCI-H23 lung): 38.2 µM
- TGI (NCI-H460 lung): 80.1 µM
- TGI (NCI-H522 lung): 19.4 µM
- TGI (NCI/ADR-RES ovarian): > 100 µM
- TGI (OVCAR-3 ovarian): 31 µM
- TGI (OVCAR-5 ovarian): 34.4 µM
- TGI (OVCAR-8 ovarian): 30.9 µM
- TGI (PC-3 prostate): 84.8 µM
- TGI (RPMI-8226 leukemia): 31.1 µM
- TGI (SF-295 CNS): 50.9 µM
- TGI (SF-539 CNS): 35.5 µM
- TGI (SK-MEL-2 melanoma): 30.9 µM
- TGI (SK-MEL-28 melanoma): 32.1 µM
- TGI (SK-MEL-5 melanoma): 32.5 µM
- TGI (SN12C renal): 29.3 µM
- TGI (SNB-19 CNS): > 100 µM
- TGI (SR leukemia): 42.3 µM
- TGI (SW-620 colon): 31.7 µM
- TGI (T-47D breast): 23.3 µM
- TGI (TK-10 renal): 52.3 µM
- TGI (U251 CNS): 30.6 µM
- TGI (UACC-257 melanoma): 29.1 µM
- TGI (UACC-62 melanoma): 30.7 µM
- TGI (UO-31 renal): 62.5 µM

SMILES: COc1ccc(C2=Nn3c(nnc3-c3ccccc3)S/C2=C\c2ccc(-c3ccc([N+](=O)[O-])cc3)o2)cc1
- TGI (786-0 renal): > 100 µM
- TGI (A498 renal): > 100 µM
- TGI (A549 NSCLC): > 100 µM
- TGI (ACHN renal): > 100 µM
- TGI (BT-549 breast): > 100 µM
- TGI (CAKI-1 renal): > 100 µM
- TGI (CCRF-CEM leukemia): 32.7 µM
- TGI (COLO 205 colon): 70 µM
- TGI (EKVX NSCLC): > 100 µM
- TGI (HCC-2998 colon): > 100 µM
- TGI (HCT-116 colon): > 100 µM
- TGI (HCT-15 colon): > 100 µM
- TGI (HL-60(TB) leukemia): 59 µM
- TGI (HOP-62 NSCLC): > 100 µM
- TGI (HOP-92 NSCLC): > 100 µM
- TGI (HS 578T breast): > 100 µM
- TGI (HT29 colon): 90.3 µM
- TGI (IGROV1 ovarian): > 100 µM
- TGI (K-562 leukemia): 88.8 µM
- TGI (KM12 colon): > 100 µM
- TGI (LOX IMVI melanoma): > 100 µM
- TGI (M14 melanoma): 86.1 µM
- TGI (MALME-3M melanoma): > 100 µM
- TGI (MCF7 breast): > 100 µM
- TGI (MDA-MB-435): 51.3 µM
- TGI (MDA-N): > 100 µM
- TGI (MOLT-4 leukemia): 76.6 µM
- TGI (NCI-H460 lung): > 100 µM
- TGI (NCI-H522 lung): 81.8 µM
- TGI (NCI/ADR-RES ovarian): > 100 µM
- TGI (OVCAR-3 ovarian): > 100 µM
- TGI (OVCAR-4 ovarian): > 100 µM
- TGI (OVCAR-5 ovarian): > 100 µM
- TGI (OVCAR-8 ovarian): > 100 µM
- TGI (PC-3 prostate): > 100 µM
- TGI (RPMI-8226 leukemia): 80.2 µM
- TGI (SF-268 CNS): > 100 µM
- TGI (SF-295 CNS): > 100 µM
- TGI (SK-MEL-2 melanoma): 67.6 µM
- TGI (SK-MEL-28 melanoma): > 100 µM
- TGI (SK-MEL-5 melanoma): > 100 µM
- TGI (SK-OV-3 ovarian): > 100 µM
- TGI (SN12C renal): > 100 µM
- TGI (SNB-19 CNS): > 100 µM
- TGI (SR leukemia): > 100 µM
- TGI (SW-620 colon): > 100 µM
- TGI (T-47D breast): > 100 µM
- TGI (U251 CNS): > 100 µM
- TGI (UACC-257 melanoma): > 100 µM
- TGI (UACC-62 melanoma): > 100 µM
- TGI (UO-31 renal): > 100 µM
